This is an account of results in patent publication US12448400B2, “KRAS G12D modulating compounds” (priority 2023, dated 2025).

Molecules are shown by their SMILES.

Data set [1] is described as follows: Rat oral pharmacokinetics. Conditions: male, Sprague Dawley, in vivo. On the set-up: species or system Male Sprague Dawley rats. As for the experimental part:
Rat Oral Pharmacokinetics
Test compounds were formulated in solution formulations (10 w/v % Sulfobutylether-p-cyclodextrin; 90% w/v % 50 mM Citrate Buffer) and administered orally to a group of three Male Sprague Dawley rats. The animals were fasted overnight prior to dose administration and up to four hours after dosing. The test articles were administrated by oral gavage at a dose volume of 5 mL-eq/kg.
(§1) Blood samples were collected at predose and 0.25, 0.5, 1, 2, 4, 6, 8, 12, 24, 48 and 72 hours post dose into K2EDTA tubes and stored on wet ice until processed. Whole blood was processed to plasma by centrifugation (3500 rpm for 10 minutes at 5° C.) within 30 minutes of collection. Plasma samples were placed in Micronic 96 well tubes and stored at −80° C. until transferred. Plasma concentration of the test compounds was determined by LC-MS/MS. Pharmacokinetic parameters were estimated using non-compartment model analysis. The maximum observed concentration (Cmax) and area under the curve from time of dosing to last measured concentration (AUClast) were calculated and reported.

Data set [2] relates to GP2D (KRAS G12D) cells. In words: 2D cell viability assay (CellTiter-Glo). Conditions: 96 h; GP2D cells, 4 days, CellTiter-Glo luminescence; read-out: G12D 2D EC50. It is filed as cell-based. In outline:
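Viability was read by CellTiter-Glo after 4 days at 37 °C of 2D culture of KRAS G12D GP2D cells (1000/well, RPMI, 10% FBS) on pre-spotted threefold compound dilutions. EC50 was fitted with a sigmoidal dose-response model as the point of half-maximal luminescence loss.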

The target of data set [3] is GDP-loaded KRAS G12D (Homo sapiens, UniProt P01116, G12D). In words: KRAS G12D (GDP) biochemical assay, TR-FRET probe displacement. Type of data set: binding. Conditions: 0.5 nM enzyme, 30 min pre-incubation, 2 h incubation, TR-FRET ratio; read-out: G12D IC50. The method, boiled down: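 TR-FRET probe displacement: 1:3 DMSO serial dilutions pre-incubated 30 min with GDP-bound KRAS G12D, followed by Eu-streptavidin/probe for 2 h at room temperature (Hepes pH 7.4, NaCl, MgCl2, Tween-20 buffer). IC50 defined as concentration halving TR-FRET ratio, from sigmoidal dose-response fit.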

Data set [4] can be described thus: Mouse oral cassette pharmacokinetics. Type of data set: in vivo, male CD-1 mice. Conditions: male, CD-1, mouse, in vivo, po, 30 mg/kg. Here is the method: Mouse Oral Cassette Pharmacokinetics
Test compounds (1-3 compounds per cassette) were formulated in solution formulations (10 w/v % Captisol in 50 mM Citrate buffer) and administered orally at 30 mg-eq./kg each compound to a group of four male CD-1 mice. The test articles were administrated by oral gavage at a dose volume of 10 mL-eq/kg.
as §1, with “at” for “at predose and 0.25,”, “3,” for “2, 4,”, “8,” for “8, 12, 24, 48”, “24” for “72”

Chain of GDP-loaded KRAS G12D (P01116 1-188 isoform P01116-2 G12D): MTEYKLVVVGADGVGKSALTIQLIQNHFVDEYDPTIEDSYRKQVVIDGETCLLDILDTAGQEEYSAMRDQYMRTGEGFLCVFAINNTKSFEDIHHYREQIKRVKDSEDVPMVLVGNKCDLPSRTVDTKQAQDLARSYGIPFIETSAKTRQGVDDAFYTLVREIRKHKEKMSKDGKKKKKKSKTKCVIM

In the case of `C#Cc1c(F)ccc2cc(N)nc(-c3c(F)c4c5c(nc(OC[C@@]67CCCN6C[C@H](F)C7)nc5c3F)N3C[C@H]5CC[C@@H]([C@H]3CCC4)N5Cc3oc(=O)oc3C)c12` (atropisomer, axis not shown; (aR)) [Example 73, 4-(((1S,4R,11S,15aR)-11-(3-amino-8-ethynyl-7-fluoroisoquinolin-1-yl)-10,12-difluoro-8-(((2R,7aS)-2-fluorotetrahydro-1H-pyrrolizin-7a(5H)-yl)methoxy)-2,3,4,5,13,14,15,15a-octahydro-1H-1,4-epiminoazepino[1′,2′:1,8]azocino[2,3,4-de]quinazolin-16-yl)methyl)-5-methyl-1,3-dioxol-2-one], in data set [1] (7.5 mg/kg), the “Rat Parent % F” value stood at 2% and the “Rat Parent AUC” value was determined as 0.3 µM·h. For the same molecule, the 50% effective concentration (EC50) in data set [2] was determined as 0.82 nM.
Regarding `C#Cc1c(F)ccc2cc(O)cc(-c3nc4c5c(nc(OC[C@@]67CCCN6C[C@H](F)C7)nc5c3F)N3C[C@H]5CC[C@@H]([C@H]3CC[C@H]4C)N5Cc3oc(=O)oc3C(C)(C)C)c12` [Example 12, 4-(tert-butyl)-5-(((4R,6aR,7S,10R)-2-(8-ethynyl-7-fluoro-3-hydroxynaphthalen-1-yl)-1-fluoro-13-(((2R,7aS)-2-fluorotetrahydro-1H-pyrrolizin-7a(5H)-yl)methoxy)-4-methyl-5,6,6a,7,8,9,10,11-octahydro-4H-3,11a,12,14,15-pentaaza-7,10-methanocyclohepta[4,5]cycloocta[1,2,3-de]naphthalen-15-yl)methyl)-1,3-dioxol-2-one], in data set [3], the IC50 came out at 73 nM. In data set [4], the “Mouse Parent AUC” value worked out at 0.2 µM·h. In addition, the EC50 in data set [2] was determined as 0.28 nM.
Taken in the same sequence, the figures for `C#Cc1c(F)ccc2cc(O)cc(-c3nc4c5c(nc(OC[C@@]67CCCN6C[C@H](F)C7)nc5c3F)N3C[C@H]5CC[C@@H]([C@H]3CC[C@H]4C)N5Cc3oc(=O)oc3CCCCCCCC)c12` [Example 13, 4-(((4R,6aR,7S,10R)-2-(8-ethynyl-7-fluoro-3-hydroxynaphthalen-1-yl)-1-fluoro-13-(((2R,7aS)-2-fluorotetrahydro-1H-pyrrolizin-7a(5H)-yl)methoxy)-4-methyl-5,6,6a,7,8,9,10,11-octahydro-4H-3,11a,12,14,15-pentaaza-7,10-methanocyclohepta[4,5]cycloocta[1,2,3-de]naphthalen-15-yl)methyl)-5-octyl-1,3-dioxol-2-one] were 24 nM, 0.42 µM·h and 0.19 nM.
For the molecule `C#Cc1c(F)ccc2cc(O)cc(-c3nc4c5c(nc(OC[C@@]67CCCN6C[C@H](F)C7)nc5c3F)N3C[C@H]5CC[C@@H]([C@H]3CCC4)N5Cc3oc(=O)oc3CCCCCC)c12` [Example 14, 4-(((6aR,7S,10R)-2-(8-ethynyl-7-fluoro-3-hydroxynaphthalen-1-yl)-1-fluoro-13-(((2R,7aS)-2-fluorotetrahydro-1H-pyrrolizin-7a(5H)-yl)methoxy)-5,6,6a,7,8,9,10,11-octahydro-4H-3,11a,12,14,15-pentaaza-7,10-methanocyclohepta[4,5]cycloocta[1,2,3-de]naphthalen-15-yl)methyl)-5-hexyl-1,3-dioxol-2-one], the IC50 in data set [3] stood at 7.3 nM. In addition, the “Mouse Parent AUC” value in data set [4] stood at 0.94 µM·h. Also, the EC50 in data set [2] was found to be 0.14 nM.
Taken in the same sequence, the figures for `C#Cc1c(F)ccc2cc(O)cc(-c3nc4c5c(nc(OC[C@@]67CCCN6C[C@H](F)C7)nc5c3F)N3C[C@H]5CC[C@@H]([C@H]3CCC4)N5Cc3oc(=O)oc3C3CCCCC3)c12` [Example 15, 4-cyclohexyl-5-(((6aR,7S,10R)-2-(8-ethynyl-7-fluoro-3-hydroxynaphthalen-1-yl)-1-fluoro-13-(((2R,7aS)-2-fluorotetrahydro-1H-pyrrolizin-7a(5H)-yl)methoxy)-5,6,6a,7,8,9,10,11-octahydro-4H-3,11a,12,14,15-pentaaza-7,10-methanocyclohepta[4,5]cycloocta[1,2,3-de]naphthalen-15-yl)methyl)-1,3-dioxol-2-one] were 7.9 nM, 0.25 µM·h and 0.2 nM.
The corresponding values for `C#Cc1c(F)ccc2cc(O)cc(-c3nc4c5c(nc(OC[C@@]67CCCN6C[C@H](F)C7)nc5c3F)N3C[C@H]5CC[C@@H]([C@H]3CC[C@H]4C)N5Cc3oc(=O)oc3CCCCCC)c12` [Example 16, 4-(((4R,6aR,7S,10R)-2-(8-ethynyl-7-fluoro-3-hydroxynaphthalen-1-yl)-1-fluoro-13-(((2R,7aS)-2-fluorotetrahydro-1H-pyrrolizin-7a(5H)-yl)methoxy)-4-methyl-5,6,6a,7,8,9,10,11-octahydro-4H-3,11a,12,14,15-pentaaza-7,10-methanocyclohepta[4,5]cycloocta[1,2,3-de]naphthalen-15-yl)methyl)-5-hexyl-1,3-dioxol-2-one] are 40 nM, 0.95 µM·h and 0.16 nM.
On to `C#Cc1c(F)ccc2cc(O)cc(-c3nc4c5c(nc(OC[C@@]67CCCN6C[C@H](F)C7)nc5c3F)N3C[C@H]5CC[C@@H]([C@H]3CC[C@H]4C)N5Cc3oc(=O)oc3C3CCCCC3)c12` [Example 17, 4-cyclohexyl-5-(((4R,6aR,7S,10R)-2-(8-ethynyl-7-fluoro-3-hydroxynaphthalen-1-yl)-1-fluoro-13-(((2R,7aS)-2-fluorotetrahydro-1H-pyrrolizin-7a(5H)-yl)methoxy)-4-methyl-5,6,6a,7,8,9,10,11-octahydro-4H-3,11a,12,14,15-pentaaza-7,10-methanocyclohepta[4,5]cycloocta[1,2,3-de]naphthalen-15-yl)methyl)-1,3-dioxol-2-one], for which, in data set [3], the 50% inhibitory concentration (IC50) was 48 nM. Besides, the “Mouse Parent AUC” value in data set [4] was 0.161 µM·h. Also, the EC50 in data set [2] was 0.2 nM.
Take `C#Cc1c(F)ccc2cccc(-c3nc4c5c(nc(OC[C@@]67CCCN6C[C@H](F)C7)nc5c3F)N3C[C@H]5CC[C@@H]([C@H]3CCC4)N5C(=O)OC(C)OC(=O)CCC)c12` (stereo partly drawn) [Example 25, 1-(butyryloxy)ethyl (6aR,7S,10R)-2-(8-ethynyl-7-fluoronaphthalen-1-yl)-1-fluoro-13-(((2R,7aS)-2-fluorotetrahydro-1H-pyrrolizin-7a(5H)-yl)methoxy)-5,6,6a,7,8,9,10,11-octahydro-4H-3,11a,12,14,15-pentaaza-7,10-methanocyclohepta[4,5]cycloocta[1,2,3-de]naphthalene-15-carboxylate]: in data set [1] (5 mg/kg), the “Rat Parent % F” value came to 1% and the “Rat Parent AUC” value was 0.037 µM·h.
For `C#Cc1c(F)ccc2cc(N)cc(-c3nc4c5c(nc(OC[C@@]67CCCN6C[C@H](F)C7)nc5c3F)N3C[C@H]5CC[C@H](N5)[C@H]3CCC4)c12` [Example 69-P, 5-ethynyl-6-fluoro-4-((6aR,7S,10R)-1-fluoro-13-(((2R,7aS)-2-fluorotetrahydro-1H-pyrrolizin-7a(5H)-yl)methoxy)-5,6,6a,7,8,9,10,11-octahydro-4H-3,11a,12,14,15-pentaaza-7,10-methanocyclohepta[4,5]cycloocta[1,2,3-de]naphthalen-2-yl)naphthalen-2-amine], the IC50 in data set [3] was 0.07 nM. Besides, in data set [4], the “Mouse Parent AUC” value turned out to be 0.5 µM·h. In addition, in data set [2], the half-maximal effective concentration (EC50) was found to be 0.5 nM.
